Experimental data taken from patent publication US20230012368A1 (Hoffmann-La Roche Inc., priority 2018, published 2023).
Counter-ions that a name gives are not always drawn.

test system: Acinetobacter baumannii ATCC 17978; experiment: Antimicrobial susceptibility testing: 90% growth inhibitory concentration (IC90) determination; type: cell-based; conditions: 90% growth inhibitory concentration; Acinetobacter baumannii ATCC17978; Iso-Sensitest broth, OD 600 nm over 16h; read-out: ATCC17978 IC90
Outline: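 Growth of the Acinetobacter baumannii strain was followed by optical density at 600 nm every 20 minutes for 16h at 35±2° C. Inoculum was ~5×10^(5) CFU/ml in Iso-Sensitest medium, with twofold compound dilutions (e.g. 50 to 0.097 μM final). The 90% inhibitory concentration was derived in log-phase growth.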

First: COc1ccc(-c2cnc3c(Nc4ccc(C(=O)NCCC5CCOCC5)c(C)c4)nccn23)cc1F [Example 37, 4-[[3-(3-fluoro-4-methoxy-phenyl)imidazo[1,2-a]pyrazin-8-yl]amino]-2-methyl-N-(2-tetrahydropyran-4-ylethyl)benzamide; 2,2,2-trifluoroacetic acid]
Second: CCc1cc(Nc2nccn3c(-c4ccc(OC)c(F)c4F)cnc23)ccc1C(=O)N[C@H](CN)CO [Example 539, N-[(1R)-1-(aminomethyl)-2-hydroxy-ethyl]-4-[[3-(2,3-difluoro-4-methoxy-phenyl)imidazo[1,2-a]pyrazin-8-yl]amino]-2-ethyl-benzamide; formic acid]
The IC90 of the first is 1.7-fold lower: 240 nM for the first, 410 nM for the second.

Going from `CCc1cc(Nc2nccn3c(-c4ccc(OC)c(F)c4F)cnc23)ccc1C(=O)NCCCNC(=O)[C@@H](N)CCCNC(=N)N` [Example 343, N-[3-[[(2S)-2-amino-5-carbamimidamidopentanoyl]amino]propyl]-4-[[3-(2,3-difluoro-4-methoxyphenyl)imidazo[1,2-a]pyrazin-8-yl]amino]-2-ethylbenzamide;2,2,2-trifluoroacetic acid] to `CCc1cc(Nc2nccn3c(-c4ccc(Cl)c(F)c4F)cnc23)ccc1C(=O)N(C)CCCN` [Example 282, N-(3-aminopropyl)-4-[[3-(4-chloro-2,3-difluorophenyl)imidazo[1,2-a]pyrazin-8-yl]amino]-2-ethyl-N-methylbenzamide; hydrochloride], the IC90 rises from 750 nM to 1400 nM (1.9-fold).

same assay, conditions: Acinetobacter baumannii, ATCC17978, 16 h, 90% growth inhibitory concentration; Acinetobacter baumannii ATCC17978; Iso-Sensitest broth, OD 600 nm over 16h; read-out: ATCC17978 IC90

`CCc1cc(Nc2nccn3c(-c4ccc(OC)cc4F)cnc23)ccc1C(=O)NCCCN` [Example 280, N-(3-aminopropyl)-2-ethyl-4-[[3-(2-fluoro-4-methoxyphenyl)imidazo[1,2-a]pyrazin-8-yl]amino]benzamide;hydrochlo-ride] and `CCc1cc(Nc2nccn3c(-c4ccc(OCC#CCO)c(F)c4F)cnc23)ccc1C(=O)NCCCN` [Example 419, N-(3-aminopropyl)-4-[[3-[2,3-difluoro-4-(4-hydroxybut-2-ynoxy)phenyl]imidazo[1,2-a]pyrazin-8-yl]amino]-2-ethyl-benzamide] are within 1.5-fold of each other in IC90: 880 nM for the first, 670 nM for the second.

Going from `COc1ccc(-c2cnc3c(Nc4ccc(C(=O)NC[C@@H](N)CNC(=O)[C@@H]5C[C@@H](O)CN5)c(C)c4)nccn23)c(F)c1F` [Example 468, (2S,4R)-N-[(2R)-2-amino-3-[[4-[[3-(2,3-difluoro-4-methoxy-phenyl)imidazo[1,2-a]pyrazin-8-yl]amino]-2-methyl-benzoyl]amino]propyl]-4-hydroxy-pyrrolidine-2-carboxamide; formic acid] to `Cc1cc(Nc2nccn3c(-c4ccc(OCC#N)c(F)c4F)cnc23)ccc1C(=O)NCCCNC(=O)[C@@H]1C[C@@H](O)CN1` [Example 357, (2S,4R)-N-[3-[[4-[[3-[4-(cyanomethoxy)-2,3-difluorophenyl]imidazo[1,2-a]pyrazin-8-yl]amino]-2-methylbenzoyl]amino]propyl]-4-hydroxypyrrolidine-2-carboxamide], the IC90 falls from 480 nM to 50 nM (9.6-fold).

Going from `CCc1cc(Nc2nccn3c(-c4ccc(OC(F)F)c(F)c4F)cnc23)ccc1C(=O)NC(C)CCN` (stereo not shown) [Example 402, N-(4-aminobutan-2-yl)-4-((3-(4-(difluoromethoxy)-2,3-difluorophenyl)imidazo[1,2-a]pyrazin-8-yl)amino)-2-ethylbenzamide hydrochloride] to `CCc1cc(Nc2nccn3c(-c4ccc(OC)c(F)c4F)cnc23)ccc1C(=O)NCC(N)CO` (stereo not shown) [Example 525, N-(2-amino-3-hydroxypropyl)-4-((3-(2,3-difluoro-4-methoxyphenyl)imidazo[1,2-a]pyrazin-8-yl)amino)-2-ethylbenzamide hydrochloride], the IC90 falls from 570 nM to 350 nM (1.6-fold).

Compared with `Cc1cc(Nc2nccn3c(-c4ccc(OC(F)F)cc4)cnc23)ccc1C(=O)N(C)CCN1CCOC(C)(C)C1` [Example 255, 4-[[3-[4-(difluoromethoxy)phenyl]im-idazo[1,2-a]pyrazin-8-yl]amino]-N-[2-(2,2-dimethylmorpholin-4-yl)ethyl]-N,2-dimethylbenzamide], `Cc1cc(Nc2nccn3c(-c4ccc(OC(F)F)cc4)cnc23)ccc1C(=O)N(C)CCC1CCN(CCCC(=O)O)CC1` [Example 443, 4-(4-(2-(4-((3-(4-(difluoromethoxy)phenyl)im-idazo[1,2-a]pyrazin-8-yl)amino)-N,2-dimethylbenzamido)ethyl)piperidin-1-yl)butanoic acid hydrochloride] is 2.9-fold lower in IC90: 2200 nM for the first, 760 nM for the second.

Going from `COc1ccc(-c2cnc3c(Nc4ccc(C(=O)N[C@@H](C)CNC(C)=N)c(Cl)c4)nccn23)c(F)c1F` [Example 487, 2-chloro-4-[[3-(2,3-difluoro-4-methoxyphenyl)imidazo[1,2-a]pyrazin-8-yl]amino]-#N!- [(2#S!)-1-(ethanimidoylamino)propan-2-yl]benzamide;formic acid] to `COc1ccc(-c2cnc3c(Nc4ccc(C(=O)NCC5CCSCC5)c(Cl)c4)nccn23)c(F)c1F` [Example 42, 2-chloro-4-[[3-(2,3-difluoro-4-methoxy-phenyl)imidazo[1,2-a]pyrazin-8-yl]amino]-N-(tetrahydrothiopyran-4-ylmethyl)benzamide], the IC90 rises from 120 nM to 890 nM (7.4-fold).

Compared with `CCc1cc(Nc2nccn3c(-c4ccc(OC)c(F)c4F)cnc23)ccc1C(=O)NCCCNC(=O)C1CNC(=N)N1` (stereo not shown) [Example 356, N-[3-[[4-[[3-(2,3-difluoro-4-methoxyphenyl)imidazo[1,2-a]pyrazin-8-yl]amino]-2-ethylbenzoyl]amino]propyl]-2-iminoimidazolidine-4-carboxamide], `CCc1cc(Nc2nccn3c(-c4ccc(OC)c(F)c4F)cnc23)ccc1C(=O)NCCCC[C@H](N)C(=O)O` [Example 344, (2S)-2-amino-6-[[4-[[3-(2,3-difluoro-4-methoxyphenyl)imidazo[1,2-a]pyrazin-8-yl]amino]-2-ethylbenzoyl]amino]hexanoic acid;2,2,2-trifluoroacetic acid] is 16-fold higher in IC90: 50 nM for the first, 800 nM for the second.

Going from `CCc1cc(Nc2nccn3c(-c4ccc(OC)c(F)c4F)cnc23)ccc1C(=O)N[C@H](C)CNC(=O)[C@@H](N)CCCNC(=N)N` [Example 331, N-[(2R)-1-[[(2S)-2-amino-5-carbamimidamidopentanoyl]amino]propan-2-yl]-4-[[3-(2,3-difluoro-4-methoxyphenyl)imidazo[1,2-a]pyrazin-8-yl]amino]-2-ethylbenzamide;formic acid] to `CCc1cc(Nc2nccn3c(-c4ccc(OC)c(F)c4F)cnc23)ccc1C(=O)NCCNC(=O)[C@H](N)CCCNC(=N)N` [Example 125, N-[2-[[(2R)-2-amino-5-guanidino-pentanoyl]amino]ethyl]-4-[[3-(2,3-difluoro-4-methoxy-phenyl)imidazo[1,2-a]pyrazin-8-yl]amino]-2-ethyl-benzamide formate], the IC90 falls from 300 nM to 120 nM (2.5-fold).

`CCc1cc(Nc2nccn3c(-c4ccc(OC)c(F)c4F)cnc23)ccc1C(=O)NCCC1CCNCC1` [Example 388, 4-[[3-(2,3-difluoro-4-methoxyphenyl)imidazo[1,2-a]pyrazin-8-yl]amino]-2-ethyl-N-(2-piperidin-4-ylethyl)benzamide; hydrochlo-ride] and `CCc1cc(Nc2nccn3c(-c4ccc(OC)c(F)c4F)cnc23)ccc1C(=O)NCC1CCN(Cc2cccnc2)CC1` [Example 554, 4-[[3-(2,3-difluoro-4-methoxy-phenyl)imidazo[1,2-a]pyrazin-8-yl]amino]-2-ethyl-N-[[1-(3-pyridylmethyl)-4-piperidyl]methyl]benzamide] are within 1.5-fold of each other in IC90: 200 nM for the first, 170 nM for the second.

Going from `CNC(=O)c1ccc(Nc2nccn3c(-c4ccc(OC)c(Cl)c4)cnc23)cc1C` [Example 27, 4-((3-(3-chloro-4-methoxyphenyl)imidazo [1,2-a]pyrazin-8-yl)amino)-N,2-dimethylbenzamide] to `CCN(CC)C(=O)c1ccc(Nc2nccn3c(-c4ccc(OC)c(Cl)c4)cnc23)cc1` [Example 215, 4-[[3-(3-chloro-4-methoxyphenyl)imidazo[1,2-a]pyrazin-8-yl]amino]-N,N-diethylbenzamide], the IC90 rises from 190 nM to 680 nM (3.6-fold).

`Cc1cc(Nc2nccn3c(-c4ccc(OC(F)F)cc4)cnc23)ccc1C(=O)NCC(=O)N1CCOCC1` [Example 252, 4-[[3-[4-(difluoromethoxy)phenyl]im-idazo[1,2-a]pyrazin-8-yl]amino]-2-methyl-N-(2-morpholin-4-yl-2-oxoethyl)benzamide] and `COc1ccc(-c2cnc3c(Nc4ccc(C(=O)NCCN)c(C)c4)nccn23)cc1` [Example 31, N-(2-aminoethyl)-4-((3-(4-methoxyphenyl)imidazo [1,2-a]pyrazin-8-yl)amino)-2-methylbenzamide] are within 1.5-fold of each other in IC90: 2800 nM for the first, 2900 nM for the second.

`COc1ccc(-c2cnc3c(Nc4cc(F)c(C(=O)NCCCN)c(Cl)c4)nccn23)c(F)c1F` [Example 436, N-(3-aminopropyl)-2-chloro-4-((3-(2,3-difluoro-4-methoxyphenyl)imidazo[1,2-a]pyrazin-8-yl)amino)-6-fluorobenzamide] and `COc1ccc(-c2cnc3c(Nc4ccc(C(=O)NCCNC(=O)CC[C@H]5C(=O)N5C)c(C)c4)nccn23)c(F)c1F` [Example 338, 4-[[3-(2,3-difluoro-4-methoxyphenyl)imidazo[1,2-a]pyrazin-8-yl]amino]-2-methyl-N-[2-[3-[(2S)-1-methyl-3-oxoaziridin-2-yl]propanoylamino]ethyl]benz-amide] are within 1.5-fold of each other in IC90: 650 nM for the first, 540 nM for the second.

First: CCc1cc(Nc2nccn3c(-c4ccc(Oc5ccc(OC)cn5)c(F)c4F)cnc23)ccc1C(=O)NCCNC(=O)[C@H](N)CCCNC(=N)N [Example 447, N-[2-[[(2R)-2-amino-5-guanidino-pentanoyl]amino]ethyl]-4-[[3-[2,3-difluoro-4-[(5-methoxy-2-pyridyl)oxy]phenyl]imidazo [1,2-a]pyrazin-8-yl]amino]-2-ethyl-benzamide; formic acid]
Second: COc1ccc(-c2cnc3c(Nc4ccc(C(=O)N(C)CCCC(=O)O)c(C)c4)nccn23)cc1F [Example 174, 4-[[4-[[3-(3-fluoro-4-methoxyphenyl)imidazo[1,2-a]pyrazin-8-yl]amino]-2-methylbenzoyl]-methylamino]butanoic acid]
The IC90 of the first is 14-fold lower: 630 nM for the first, 8900 nM for the second.
